Read-outs that look alike come from different tables or passages of the source. Square brackets hold non-standard residues; d marks the D form. Peptide text beside a SMILES is read from it. Nspe(4-Br) = C[C@H](NCC(=O)O)c1ccc(Br)cc1; Nspe = C[C@H](NCC(=O)O)c1ccccc1; Nlys = NCCCCNCC(=O)O
Legend:
[1] = system: Enterobacteriaceae; assay: Geometric mean MIC, therapeutic index and selectivity ratio, Enterobacteriaceae; assay type: cell-based; conditions: Enterobacteriaceae (E. coli, K. pneumoniae, and E. aerogenes)
Method: Briefly, bacteria were suspended in cation-adjusted Mueller–Hinton broth (CAMHB; Oxoid, UK) for antibiotics, or MHB (Oxoid, UK) for peptidomimetics to obtain 5 × 10^5 colony forming unit (CFU) ml^−1. […] Positive controls contained only microbes, and blanks contained only media. Microbial suspensions (100 µl) were added to wells, plates wrapped, and incubated at 37°C, 120 rpm for 16–20 h. After incubation, suspensions were removed, log10 diluted, and plated on Trypticase Soya Agar with phosphatidylcholine and Tween 80 to determine minimum bactericidal or fungicidal concentration (MBC or MFC). […] Geometric mean MIC of the peptoids were calculated to evaluate the broad overview of antimicrobial activity across the pathogens.
The therapeutic indices (TIs) of the compounds were calculated with the use of following formula: […]

[2] = system: E. coli 0011
How it was run: (§1)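 Growth inhibition was scored after 16–20 h shaking incubation (37°C, 120 rpm) of 5 × 10^5 CFU ml^−1 suspensions in Mueller–Hinton broth, cation-adjusted when antibiotics were tested.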

[3] = system: P. aeruginosa AR-1270
How it was run: as §1

[4] = system: E. coli 0015
How it was run: as §1

[5] = system: S. aureus 105
How it was run: as §1

[6] = system: A. baumannii 008
How it was run: as §1

[7] = system: A. baumannii 006
How it was run: as §1

[8] = system: En. cloacae 005
How it was run: as §1

[9] = system: P. aeruginosa 33
How it was run: as §1

[10] = system: K. pneumoniae JIE4212
How it was run: as §1

[11] = system: K. pneumoniae JIE2709
How it was run: as §1

[12] = system: A. baumannii 005
How it was run: as §1

[13] = system: E. coli 005
How it was run: as §1

[14] = system: E. coli 0010
How it was run: as §1

[15] = system: S. aureus 38
How it was run: as §1

[16] = system: A. baumannii ATCC 19 606
How it was run: as §1

[17] = system: En. cloacae 003
How it was run: as §1

[18] = system: A. baumannii 007
How it was run: as §1

[19] = system: S. aureus 04
How it was run: as §1

[20] = system: Enteroc. faecalis NCTC 13 379
How it was run: as §1

[21] = system: S. aureus 117
How it was run: as §1

[22] = system: P. aeruginosa 216
How it was run: as §1

[23] = system: K. pneumoniae JIE2713
How it was run: as §1

[24] = system: En. cloacae 001
How it was run: as §1

[25] = E. coli 0011, MHB (melimine/Mel4 with 0.2% BSA, 0.01% acetic acid), mean MIC
[26] = P. aeruginosa AR-1270, MHB (melimine/Mel4 with 0.2% BSA, 0.01% acetic acid), mean MIC
[27] = E. coli 0015, MHB (melimine/Mel4 with 0.2% BSA, 0.01% acetic acid), mean MIC
[28] = S. aureus 105, MHB (melimine/Mel4 with 0.2% BSA, 0.01% acetic acid), mean MIC
[29] = A. baumannii 006, MHB (melimine/Mel4 with 0.2% BSA, 0.01% acetic acid), mean MIC
[30] = P. aeruginosa 33, MHB (melimine/Mel4 with 0.2% BSA, 0.01% acetic acid), mean MIC
[31] = K. pneumoniae JIE4212, MHB (melimine/Mel4 with 0.2% BSA, 0.01% acetic acid), mean MIC
[32] = K. pneumoniae JIE2709, MHB (melimine/Mel4 with 0.2% BSA, 0.01% acetic acid), mean MIC
[33] = A. baumannii 005, MHB (melimine/Mel4 with 0.2% BSA, 0.01% acetic acid), mean MIC
[34] = E. coli 005, MHB (melimine/Mel4 with 0.2% BSA, 0.01% acetic acid), mean MIC
[35] = E. coli 0010, MHB (melimine/Mel4 with 0.2% BSA, 0.01% acetic acid), mean MIC
[36] = S. aureus 38, MHB (melimine/Mel4 with 0.2% BSA, 0.01% acetic acid), mean MIC
[37] = A. baumannii ATCC 19 606, MHB (melimine/Mel4 with 0.2% BSA, 0.01% acetic acid), mean MIC
[38] = En. cloacae 003, MHB (melimine/Mel4 with 0.2% BSA, 0.01% acetic acid), mean MIC
[39] = A. baumannii 007, MHB (melimine/Mel4 with 0.2% BSA, 0.01% acetic acid), mean MIC
[40] = Enteroc. faecalis NCTC 13 379, MHB (melimine/Mel4 with 0.2% BSA, 0.01% acetic acid), mean MIC
[41] = S. aureus 117, MHB (melimine/Mel4 with 0.2% BSA, 0.01% acetic acid), mean MIC
[42] = P. aeruginosa 216, MHB (melimine/Mel4 with 0.2% BSA, 0.01% acetic acid), mean MIC
[43] = K. pneumoniae JIE2713, MHB (melimine/Mel4 with 0.2% BSA, 0.01% acetic acid), mean MIC
[44] = En. cloacae 001, MHB (melimine/Mel4 with 0.2% BSA, 0.01% acetic acid), mean MIC

## C[C@@H](c1ccc(Br)cc1)N(CC(N)=O)C(=O)CN(C(=O)CN(CCCCN)C(=O)CN(C(=O)CN(C(=O)CNCCCCN)[C@@H](C)c1ccccc1)[C@@H](C)c1ccc(Br)cc1)[C@@H](C)c1ccccc1 [TM2] (H-[Nlys][Nspe][Nspe(4-Br)][Nlys][Nspe][Nspe(4-Br)]-NH2)
[1]
  Geometric mean MICE: 58.3 µg/mL
[2]; 0011
  MIC of peptidomimetics: 58.1 µM
[2]; [25]
  MIC of peptidomimetics: 62.5 µg/mL
[3]; AR-1270
  MIC of peptidomimetics: 29.0 µM
[3]; [26]
  MIC of peptidomimetics: 31.3 µg/mL
[4]; 0015
  MIC of peptidomimetics: 58.1 µM
[4]; [27]
  MIC of peptidomimetics: 62.5 µg/mL
[5]; 105
  MIC of peptidomimetics: 7.2 µM
[5]; [28]
  MIC of peptidomimetics: 7.8 µg/mL
[6]; 008
  MIC of peptidomimetics: 15.6 µg/mL
[7]; 006
  MIC of peptidomimetics: 7.2 µM
[7]; [29]
  MIC of peptidomimetics: 7.8 µg/mL
[8]
  MIC of peptidomimetics: 15.6 µg/mL
[9]; 33
  MIC of peptidomimetics: 29.0 µM
[9]; [30]
  MIC of peptidomimetics: 31.3 µg/mL
[10]; JIE4212
  MIC of peptidomimetics: 58.1 µM
[10]; [31]
  MIC of peptidomimetics: 62.5 µg/mL
[11]; JIE2709
  MIC of peptidomimetics: 116.2 µM
[11]; [32]
  MIC of peptidomimetics: 125 µg/mL
[12]; 005
  MIC of peptidomimetics: 7.2 µM
[12]; [33]
  MIC of peptidomimetics: 7.8 µg/mL
[13]; 005
  MIC of peptidomimetics: 116.2 µM
[13]; [34]
  MIC of peptidomimetics: 125 µg/mL
[14]; 0010
  MIC of peptidomimetics: 58.1 µM
[14]; [35]
  MIC of peptidomimetics: 62.5 µg/mL
[15]; 38
  MIC of peptidomimetics: 7.2 µM
[15]; [36]
  MIC of peptidomimetics: 7.8 µg/mL
[16]; [37]
  MIC of peptidomimetics: 31.3 µg/mL
[16]; ATCC 19
  MIC of peptidomimetics: 29.0 µM
[17]
  MIC of peptidomimetics: 29.0 µM
[17]; [38]
  MIC of peptidomimetics: 31.3 µg/mL
[18]; 007
  MIC of peptidomimetics: 29.0 µM
[18]; [39]
  MIC of peptidomimetics: 31.3 µg/mL
[19]; 04
  MIC of peptidomimetics: 3.9 µg/mL
[20]; [40]
  MIC of peptidomimetics: 31.3 µg/mL
[20]; NCTC 13
  MIC of peptidomimetics: 29.0 µM
[21]; 117
  MIC of peptidomimetics: 7.2 µM
[21]; [41]
  MIC of peptidomimetics: 7.8 µg/mL
[22]; 216
  MIC of peptidomimetics: 14.5 µM
[22]; [42]
  MIC of peptidomimetics: 15.6 µg/mL
[23]; JIE2713
  MIC of peptidomimetics: 116.2 µM
[23]; [43]
  MIC of peptidomimetics: 125 µg/mL
[24]
  MIC of peptidomimetics: 29.0 µM
[24]; [44]
  MIC of peptidomimetics: 31.3 µg/mL

## C[C@@H](c1ccc(Br)cc1)N(CC(=O)N(CCCCN)CC(=O)N(CC(=O)N(CC(=O)N(CCCCN)CC(N)=O)[C@@H](C)c1ccc(Br)cc1)[C@@H](C)c1ccc(Br)cc1)C(=O)CN(C(=O)CNCCCCN)[C@@H](C)c1ccc(Br)cc1 [TM14] (H-[Nlys][Nspe(4-Br)][Nspe(4-Br)][Nlys][Nspe(4-Br)][Nspe(4-Br)][Nlys]-NH2)
[1]
  Geometric mean MICE: 31.3 µg/mL
[2]; 0011
  MIC of peptidomimetics: 23.0 µM
[2]; [25]
  MIC of peptidomimetics: 31.3 µg/mL
[3]; AR-1270
  MIC of peptidomimetics: 45.9 µM
[3]; [26]
  MIC of peptidomimetics: 62.5 µg/mL
[4]; 0015
  MIC of peptidomimetics: 23.0 µM
[4]; [27]
  MIC of peptidomimetics: 31.3 µg/mL
[5]; 105
  MIC of peptidomimetics: 2.9 µM
[5]; [28]
  MIC of peptidomimetics: 3.9 µg/mL
[6]; 008
  MIC of peptidomimetics: 23.0 µM
[6]; A. baumannii 008, MHB (melimine/Mel4 with 0.2% BSA, 0.01% acetic acid), mean MIC
  MIC of peptidomimetics: 31.3 µg/mL
[7]; 006
  MIC of peptidomimetics: 11.4 µM
[7]; [29]
  MIC of peptidomimetics: 15.6 µg/mL
[8]
  MIC of peptidomimetics: 45.9 µM
[8]; En. cloacae 005, MHB (melimine/Mel4 with 0.2% BSA, 0.01% acetic acid), mean MIC
  MIC of peptidomimetics: 62.5 µg/mL
[9]; 33
  MIC of peptidomimetics: 11.5 µM
[9]; [30]
  MIC of peptidomimetics: 15.6 µg/mL
[10]; JIE4212
  MIC of peptidomimetics: 23.0 µM
[10]; [31]
  MIC of peptidomimetics: 31.3 µg/mL
[11]; JIE2709
  MIC of peptidomimetics: 45.9 µM
[11]; [32]
  MIC of peptidomimetics: 62.5 µg/mL
[12]; 005
  MIC of peptidomimetics: 11.4 µM
[12]; [33]
  MIC of peptidomimetics: 15.6 µg/mL
[13]; 005
  MIC of peptidomimetics: 23.0 µM
[13]; [34]
  MIC of peptidomimetics: 31.3 µg/mL
[14]; 0010
  MIC of peptidomimetics: 23.0 µM
[14]; [35]
  MIC of peptidomimetics: 31.3 µg/mL
[15]; 38
  MIC of peptidomimetics: 2.9 µM
[15]; [36]
  MIC of peptidomimetics: 3.9 µg/mL
[16]; [37]
  MIC of peptidomimetics: 31.3 µg/mL
[16]; ATCC 19
  MIC of peptidomimetics: 23.0 µM
[17]
  MIC of peptidomimetics: 45.9 µM
[17]; [38]
  MIC of peptidomimetics: 62.5 µg/mL
[18]; 007
  MIC of peptidomimetics: 23.0 µM
[18]; [39]
  MIC of peptidomimetics: 31.3 µg/mL
[19]; 04
  MIC of peptidomimetics: 5.7 µM
[19]; S. aureus 004, MHB (melimine/Mel4 with 0.2% BSA, 0.01% acetic acid), mean MIC
  MIC of peptidomimetics: 7.8 µg/mL
[20]; [40]
  MIC of peptidomimetics: 7.8 µg/mL
[20]; NCTC 13
  MIC of peptidomimetics: 5.7 µM
[21]; 117
  MIC of peptidomimetics: 5.7 µM
[21]; [41]
  MIC of peptidomimetics: 7.8 µg/mL
[22]; 216
  MIC of peptidomimetics: 11.5 µM
[22]; [42]
  MIC of peptidomimetics: 15.6 µg/mL
[23]; JIE2713
  MIC of peptidomimetics: 5.7 µM
[23]; [43]
  MIC of peptidomimetics: 7.8 µg/mL
[24]
  MIC of peptidomimetics: 11.5 µM
[24]; [44]
  MIC of peptidomimetics: 15.6 µg/mL

— publication PMC11879280, “Antimicrobial activity of peptoids against Metallo-β-lactamase-producing Klebsiella pneumoniae, Acinetobacter baumannii, Pseudomonas aeruginosa, and other WHO priority pathogens, including Candida auris” (Journal of Applied Microbiology, 2025)
